# Experimental data reported in patent US10131652B2, “Pyrimidinyloxy benzene derivatives as herbicides” (E. I. DU PONT DE NEMOURS AND COMPANY, priority 2014, dated 2018).
# Where two headings read alike, the source gives them in different places.
# Key:
# Test in all cases: Test E pre-/postemergence plant response
# Assay type in all cases: in vivo
# [1] = tested on: winter barley (Hordeum vulgare); conditions: scale 0 to 100, read-out: Plant response rating, Barley, Winter; for plant injury at 16 g/ha: 16 g ai/ha; for plant injury at 31 g/ha: 31 g ai/ha; for plant injury at 62 g/ha: 62 g ai/ha; for plant injury at 125 g/ha: 125 g ai/ha
# How it was run: (§1)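 Pre-emergence: seeds sown in silt loam soil and sprayed with test chemicals in a non-phytotoxic solvent/surfactant mix. Post-emergence: plants at 2–18 cm (1- to 4-leaf stage) in peat/vermiculite medium treated with the same formulation. Visual rating versus controls after 7–21 days, 0 (no effect) to 100 (complete control).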
# [2] = tested on: bluegrass (annual bluegrass, Poa annua); conditions: scale 0 to 100, read-out: Plant response rating, Bluegrass; for pest or weed control at 16 g/ha: 16 g ai/ha; for pest or weed control at 31 g/ha: 31 g ai/ha; for pest or weed control at 62 g/ha: 62 g ai/ha; for pest or weed control at 125 g/ha: 125 g ai/ha
# How it was run: as §1
# [3] = tested on: pigweed (Amaranthus retroflexus); conditions: scale 0 to 100, read-out: Plant response rating, Pigweed; for pest or weed control at 16 g/ha: 16 g ai/ha; for pest or weed control at 31 g/ha: 31 g ai/ha; for pest or weed control at 62 g/ha: 62 g ai/ha; for pest or weed control at 125 g/ha: 125 g ai/ha
# How it was run: as §1
# wild oat (Avena fatua) = conditions: scale 0 to 100, read-out: Plant response rating, Oat, Wild; for pest or weed control at 16 g/ha: 16 g ai/ha; for pest or weed control at 31 g/ha: 31 g ai/ha; for pest or weed control at 62 g/ha: 62 g ai/ha; for pest or weed control at 125 g/ha: 125 g ai/ha
# How it was run: as §1
# [4] = tested on: blackgrass (Alopecurus myosuroides); conditions: scale 0 to 100, read-out: Plant response rating, Blackgrass; for pest or weed control at 16 g/ha: 16 g ai/ha; for pest or weed control at 31 g/ha: 31 g ai/ha; for pest or weed control at 62 g/ha: 62 g ai/ha; for pest or weed control at 125 g/ha: 125 g ai/ha
# How it was run: as §1
# [5] = tested on: windgrass (Apera spica-venti); conditions: scale 0 to 100, read-out: Plant response rating, Windgrass; for pest or weed control at 16 g/ha: 16 g ai/ha; for pest or weed control at 62 g/ha: 62 g ai/ha; for pest or weed control at 125 g/ha: 125 g ai/ha
# How it was run: as §1
# [6] = tested on: lambsquarters (Chenopodium album); conditions: scale 0 to 100, read-out: Plant response rating, Lambsquarters; for pest or weed control at 16 g/ha: 16 g ai/ha; for pest or weed control at 31 g/ha: 31 g ai/ha; for pest or weed control at 62 g/ha: 62 g ai/ha; for pest or weed control at 125 g/ha: 125 g ai/ha
# How it was run: as §1
# kochia (Kochia scoparia) = conditions: Bassia scoparia, scale 0 to 100, read-out: Plant response rating, Kochia; for pest or weed control at 16 g/ha: 16 g ai/ha; for pest or weed control at 31 g/ha: 31 g ai/ha; for pest or weed control at 62 g/ha: 62 g ai/ha; for pest or weed control at 125 g/ha: 125 g ai/ha
# How it was run: as §1
# [7] = tested on: wild radish (Raphanus raphanistrum); conditions: scale 0 to 100, read-out: Plant response rating, Radish, Wild; for pest or weed control at 16 g/ha: 16 g ai/ha; for pest or weed control at 31 g/ha: 31 g ai/ha; for pest or weed control at 62 g/ha: 62 g ai/ha; for pest or weed control at 125 g/ha: 125 g ai/ha
# How it was run: as §1
# [8] = tested on: canarygrass (Phalaris minor); conditions: scale 0 to 100, read-out: Plant response rating, Canarygrass; for pest or weed control at 16 g/ha: 16 g ai/ha; for pest or weed control at 31 g/ha: 31 g ai/ha; for pest or weed control at 62 g/ha: 62 g ai/ha; for pest or weed control at 125 g/ha: 125 g ai/ha
# How it was run: as §1
# [9] = tested on: winter wheat (Triticum aestivum); conditions: scale 0 to 100, read-out: Plant response rating, Wheat, Winter; for plant injury at 16 g/ha: 16 g ai/ha; for plant injury at 62 g/ha: 62 g ai/ha; for plant injury at 125 g/ha: 125 g ai/ha
# How it was run: as §1
# [10] = post-emergence, 31 g ai/ha, Postemergence
smiles,measurement,setting,value
"Fc1cccc(Oc2ncc(Br)cn2)c1-c1cc(C(F)F)no1 [Compound 145, 5-bromo-2-[2-[3-(difluoromethyl)-5-isoxazolyl]-3-fluorophenoxy]pyrimidine]",plant injury at 16 g/ha,"[1]; post-emergence, Postemergence",15%
same,plant injury at 31 g/ha,"[1]; post-emergence, Postemergence",15%
same,plant injury at 62 g/ha,"[1]; post-emergence, Postemergence",30%
same,plant injury at 125 g/ha,"[1]; post-emergence, Postemergence",40%
same,plant injury at 16 g/ha,"[1]; pre-emergence, Preemergence",10%
same,plant injury at 31 g/ha,"[1]; pre-emergence, Preemergence",15%
same,plant injury at 62 g/ha,"[1]; pre-emergence, Preemergence",30%
same,plant injury at 125 g/ha,"[1]; pre-emergence, Preemergence",85%
same,pest or weed control at 16 g/ha,"[2]; post-emergence, Postemergence",15%
same,pest or weed control at 31 g/ha,"[2]; post-emergence, Postemergence",60%
same,pest or weed control at 62 g/ha,"[2]; post-emergence, Postemergence",65%
same,pest or weed control at 125 g/ha,"[2]; post-emergence, Postemergence",70%
same,pest or weed control at 16 g/ha,"[2]; pre-emergence, Preemergence",0%
same,pest or weed control at 31 g/ha,"[2]; pre-emergence, Preemergence",0%
same,pest or weed control at 62 g/ha,"[2]; pre-emergence, Preemergence",10%
same,pest or weed control at 125 g/ha,"[2]; pre-emergence, Preemergence",90%
same,pest or weed control at 16 g/ha,"[3]; post-emergence, Postemergence",100%
same,pest or weed control at 31 g/ha,"[3]; post-emergence, Postemergence",100%
same,pest or weed control at 62 g/ha,"[3]; post-emergence, Postemergence",100%
same,pest or weed control at 125 g/ha,"[3]; post-emergence, Postemergence",100%
same,pest or weed control at 16 g/ha,"[3]; pre-emergence, Preemergence",100%
same,pest or weed control at 31 g/ha,"[3]; pre-emergence, Preemergence",100%
same,pest or weed control at 62 g/ha,"[3]; pre-emergence, Preemergence",100%
same,pest or weed control at 125 g/ha,"[3]; pre-emergence, Preemergence",100%
same,pest or weed control at 16 g/ha,"wild oat (Avena fatua); post-emergence, Postemergence",15%
same,pest or weed control at 31 g/ha,"wild oat (Avena fatua); post-emergence, Postemergence",30%
same,pest or weed control at 62 g/ha,"wild oat (Avena fatua); post-emergence, Postemergence",40%
same,pest or weed control at 125 g/ha,"wild oat (Avena fatua); post-emergence, Postemergence",80%
same,pest or weed control at 16 g/ha,"wild oat (Avena fatua); pre-emergence, Preemergence",25%
same,pest or weed control at 31 g/ha,"wild oat (Avena fatua); pre-emergence, Preemergence",30%
same,pest or weed control at 62 g/ha,"wild oat (Avena fatua); pre-emergence, Preemergence",30%
same,pest or weed control at 125 g/ha,"wild oat (Avena fatua); pre-emergence, Preemergence",85%
same,pest or weed control at 16 g/ha,"[4]; post-emergence, Postemergence",25%
same,pest or weed control at 31 g/ha,"[4]; post-emergence, Postemergence",35%
same,pest or weed control at 62 g/ha,"[4]; post-emergence, Postemergence",65%
same,pest or weed control at 125 g/ha,"[4]; post-emergence, Postemergence",80%
same,pest or weed control at 16 g/ha,"[4]; pre-emergence, Preemergence",10%
same,pest or weed control at 31 g/ha,"[4]; pre-emergence, Preemergence",50%
same,pest or weed control at 62 g/ha,"[4]; pre-emergence, Preemergence",60%
same,pest or weed control at 125 g/ha,"[4]; pre-emergence, Preemergence",75%
same,pest or weed control at 16 g/ha,"[5]; post-emergence, Postemergence",5%
same,pest or weed control at 31 g/ha,[5]; [10],10%
same,pest or weed control at 62 g/ha,"[5]; post-emergence, Postemergence",20%
same,pest or weed control at 125 g/ha,"[5]; post-emergence, Postemergence",60%
same,pest or weed control at 16 g/ha,"[5]; pre-emergence, Preemergence",10%
same,pest or weed control at 62 g/ha,"[5]; pre-emergence, Preemergence",75%
same,pest or weed control at 125 g/ha,"[5]; pre-emergence, Preemergence",98%
same,pest or weed control at 16 g/ha,"[6]; post-emergence, Postemergence",90%
same,pest or weed control at 31 g/ha,"[6]; post-emergence, Postemergence",90%
same,pest or weed control at 62 g/ha,"[6]; post-emergence, Postemergence",95%
same,pest or weed control at 125 g/ha,"[6]; post-emergence, Postemergence",95%
same,pest or weed control at 16 g/ha,"[6]; pre-emergence, Preemergence",100%
same,pest or weed control at 31 g/ha,"[6]; pre-emergence, Preemergence",100%
same,pest or weed control at 62 g/ha,"[6]; pre-emergence, Preemergence",100%
same,pest or weed control at 125 g/ha,"[6]; pre-emergence, Preemergence",100%
same,pest or weed control at 16 g/ha,"kochia (Kochia scoparia); post-emergence, Postemergence",98%
same,pest or weed control at 31 g/ha,"kochia (Kochia scoparia); post-emergence, Postemergence",100%
same,pest or weed control at 62 g/ha,"kochia (Kochia scoparia); post-emergence, Postemergence",100%
same,pest or weed control at 125 g/ha,"kochia (Kochia scoparia); post-emergence, Postemergence",100%
same,pest or weed control at 16 g/ha,"kochia (Kochia scoparia); pre-emergence, Preemergence",60%
same,pest or weed control at 31 g/ha,"kochia (Kochia scoparia); pre-emergence, Preemergence",100%
same,pest or weed control at 62 g/ha,"kochia (Kochia scoparia); pre-emergence, Preemergence",100%
same,pest or weed control at 125 g/ha,"kochia (Kochia scoparia); pre-emergence, Preemergence",100%
same,pest or weed control at 16 g/ha,"[7]; post-emergence, Postemergence",95%
same,pest or weed control at 31 g/ha,"[7]; post-emergence, Postemergence",100%
same,pest or weed control at 62 g/ha,"[7]; post-emergence, Postemergence",100%
same,pest or weed control at 125 g/ha,"[7]; post-emergence, Postemergence",100%
same,pest or weed control at 16 g/ha,"[7]; pre-emergence, Preemergence",15%
same,pest or weed control at 31 g/ha,"[7]; pre-emergence, Preemergence",15%
same,pest or weed control at 62 g/ha,"[7]; pre-emergence, Preemergence",85%
same,pest or weed control at 125 g/ha,"[7]; pre-emergence, Preemergence",100%
same,pest or weed control at 16 g/ha,"[8]; post-emergence, Postemergence",15%
same,pest or weed control at 31 g/ha,"[8]; post-emergence, Postemergence",25%
same,pest or weed control at 62 g/ha,"[8]; post-emergence, Postemergence",40%
same,pest or weed control at 125 g/ha,"[8]; post-emergence, Postemergence",65%
same,pest or weed control at 16 g/ha,"[8]; pre-emergence, Preemergence",40%
same,pest or weed control at 31 g/ha,"[8]; pre-emergence, Preemergence",75%
same,pest or weed control at 62 g/ha,"[8]; pre-emergence, Preemergence",100%
same,pest or weed control at 125 g/ha,"[8]; pre-emergence, Preemergence",100%
same,plant injury at 16 g/ha,"[9]; post-emergence, Postemergence",15%
same,plant injury at 31 g/ha,[9]; [10],20%
same,plant injury at 62 g/ha,"[9]; post-emergence, Postemergence",35%
same,plant injury at 125 g/ha,"[9]; post-emergence, Postemergence",55%
same,plant injury at 16 g/ha,"[9]; pre-emergence, Preemergence",0%
same,plant injury at 62 g/ha,"[9]; pre-emergence, Preemergence",25%
same,plant injury at 125 g/ha,"[9]; pre-emergence, Preemergence",75%
